Results reported in patent publication US20260132172A1, “IN VITRO BIOSYNTHESIS OF DIVERSE PYRIDINE-BASED MACROCYCLIC PEPTIDES” (The Brd. of Trustees of the Univ. of Illinois, priority 2022, published 2026).

Columns and labels:
[1] = target: MBP-MroD (Micromonospora rosaria MroD with maltose-binding protein fused to the N-terminus) (Micromonospora rosaria) [MBP: P0AEX9]; assay: competition fluorescence polarization against fluorescein-Δ12MroA1
[2] = target: MBP-MroB (Micromonospora rosaria MroB with maltose-binding protein fused to the N-terminus) (Micromonospora rosaria) [MBP: P0AEX9]; assay: as above
MroD [3] = assay: Competition fluorescence polarization with fluorescein-Δ12MroA1, MroD; format: binding, Micromonospora rosaria; conditions: competition FP, 80 nM enzyme, 5 nM labeled Δ12MroA1
Description: (§1) The initial sample contained 80 nM enzyme, 5 nM labeled Δ12MroA1 peptide, and competitor peptide (concentration is from 20 μM to 100 μM, depending on the experiment). In a black 384-well plate (Corning 3575), 30 μL of initial sample was added to the first well, followed by 13 2-fold dilutions into subsequent wells containing 80 nM MBP-MroB and 5 nM labeled Δ12MroA1. The plate was covered from light and incubated at room temperature for 10 min, and then fluorescence polarization was measured (Biotek Synergy H4 hybrid reader) using the following filter (Ex: Em—485 nm/20 nm: 518 nm/20 nm). The obtained data was converted to anisotropy value and plotted against peptide concentration, and fitted to dose-response function:
(§2) Where: y=anisotropy value, A1=minimum anisotropy, A2=maximum anisotropy, p=Hill's coefficient, x=competitor concentration. The obtained IC50 was used to calculate inhibitor constant Krusing the following equation: 12
(§3) In cases where competitor concentration was not high enough to achieve a plateau, the competition curve was fitted with minimum anisotropy fixed to be the same value as the anisotropy value of the free probe solution. This calculation assumed that the labeled peptide was completely displaced from the enzyme binding pocket at a very high concentration of the competitor. […] The specific minimum anisotropy used in this experiment for both MroB and MroD was 65.

MroB = assay: Competition fluorescence polarization with fluorescein-Δ12MroA1, MroB; format: binding, Micromonospora rosaria; conditions: competition FP, 80 nM enzyme, 5 nM labeled Δ12MroA1
Description: as §1, §2, §3

MroD [4] = assay: MroD [4+2] macrocyclization of didehydrated MroA2 variants, MALDI-TOF-MS; format: biochemical, Micromonospora rosaria; set-up: key: +++ indicates enzyme activity roughly equal to wild-type MroA2; ++ indicates modestly reduced enzyme activity; + indicates severely reduced enzyme activity; − indicates no detectable enzyme activity (no macrocycles detected); conditions: MroA2 multi-site variants; qualitatively estimated from leader peptide vs remaining didehydrated intermediate
Description: (§4) After incubation, the enzyme reaction (18 μL) was split into two equal parts. One part was treated with MBP-MroD such that the final concentration of MBP-MroD is 3 μM, and the other part was added the same volume but with buffer lacking MBP-MroD (50 mM HEPES, 300 mM NaCl, 2.5% glycerol, 0.5 mM TCEP). The reaction further proceeded for 1.5 h at room temperature. All reaction mixture was then desalted with solid-phase extraction using Ziptip with 0.6 μL C18 resin (EMD Millipore) and crystallized on an MTP384 steel target plate using either saturated sinapic acid or 50 mg/mL Super DHB [dissolved in 60% acetonitrile and 0.1% trifluoroacetic acid (TFA)] as the matrix. The crystallized spots were then analyzed using MALDI-TOF-MS (Bruker Ultraflex). The external standard for MALDI-TOF-MS analysis is ProteoMass Peptide and Protein MALDI-MS Calibration Kit (Sigma).

MroB/C = MroB/C dehydration (Dha formation) of MroA precursor peptide variants, MALDI-TOF-MS / LC-MS/MS; format: biochemical, Micromonospora rosaria; conditions: MroA2 multi-site variants, in vitro translated, MALDI-TOF-MS
Description: In a 0.65 mL protein low-binding Eppendorf tube placed on ice. 0.75 μL of purified mroA variant template DNA was mixed with 0.75 μL of Solution B and 1 μL of Solution A of PURExpress In vitro Protein Synthesis Kit (E6800L) purchased from NEB (total volume of reaction is 2.5 μL). The translation reactions were performed at 37° C. for 1 h on an aluminum block.
For a full MroBCD substrate scope investigation, a total translation volume for each variant of 7.5 μL was performed. 1.5 μL of 90 mM iodoacetamide (IAA) was added to quench dithiothreitol (DTT) in the translation reaction mixture, a thiol-based nucleophile that can react with electrophilic dehydroalanines generated from MroBC-catalyzed dehydration assays. The translation product was split into two parts with these corresponding volumes: 3 μL and 6 μL. In the 6 μL part. 10.2 μL of the enzyme mix containing enzymes and cofactors was added along with 1.8 μL 90 mM ATP (pH 7.5), which was used to initiate the reaction. The enzyme mix was made by adding these components in the following order: HEPES pH 7.5, MgCl2, glutamate, T. bispora tRNA^Glu (CUC), thermostable inorganic pyrophosphatase (TIPP), TEV (L56V/S135G/S219V) (w/w ratio with a total amount of MBP-tagged protein=1:10), MBP-MroB, MBP-MroC, and T. bispora GluRS. The enzyme mix was incubated 25 min at room temperature before adding to the translation product to facilitate in situ TEV-catalyzed cleavage of MBP from MBP-MroB and MBP-MroC. The enzymatic reaction proceeded for 1 h at room temperature. Overall, the concentration of components in the 18 μL reaction mix is as follows: 50 mM HEPES pH 7.5, 5 mM MgCl2. L-glutamate 1 mM, 3 μM T. bispora tRNA^Glu, 1 μM T. bispora GluRS, 2 μM MBP-MroB, 2 μM MBP-MroC, […], 0.027 U/μL TIPP, and 5 mM IAA. In addition, the 3 μL part was incubated with the same buffer lacking enzymes and tRNA as a translation control.
The reactions were performed similarly as described above, with 10 μM substrate concentration and without IAA. The total volume of each reaction is 100 μL.
Enzymatic assays were desalted using solid-phase extraction prior to LC-ESI-MS/MS analysis. Specifically, except for the thiazol(in)es-containing pyritide (which utilize 8 mg Pierce C18 Spin Column), the samples were applied to Toptip C18 (10-200 μL, Glygen Corp) wetted with 50 μL of 80% acetonitrile (0.1% formic acid) and equilibrate with 150 μL of 0.1% formic acid following the manufacturer instructions. The C18 columns (tips) are then washed with 150 μL of 0.1% formic acid and eluted using 100 μL 80% acetonitrile (0.1% formic acid). The samples were then dried utilizing lyophilization and redissolved in 25% acetonitrile (80 μL for enzymatic assays of in vitro-translated substrates and 200 μL for enzymatic assays of purified substrates). Then 20 μL of each sample was injected into an Agilent AdvanceBio Peptide Plus column (2.1×150 mm, 2.7 μm) equipped with an Agilent 6545B Q-TOF interfaced with an Agilent 1290 Infinity II LC system. Mobile phase solvents were composed of H2O, 0.1% formic acid (Solvent A), and acetonitrile 0.1% formic acid (Solvent B). The column compartment was maintained at 35° C. during all experiments. The column was equilibrated with 5 column volumes of starting mobile phase (95% A and 5% B) between injections. The gradient of all LC runs was as follows: 0-2 min: 95% A 5% B, 2-3 min: 70% A 30% B, 3-18 min: 20% A 80% B, 18-20 min: 5% A 95% B. The samples were run to waste for the first 3 min before applying to the mass spectrometer. Mass range was set from 100 to 1700 m/z (except for 412MroA1 W7G: 100-3000 m/z). MS parameters were as follows: gas, 320° C. at 8 L/min: nebulizer, 35 psig: nozzle voltage, 1000 V: sheath gas, 350° C. at 11 L/min: capillary, 3500 V: fragmentor, 125 V: skimmer, 65 V: MS scan rate (10) spectra/s): MS-MS scan rate (5 spectra/s); and isolation width (MS/MS), 1.3 m z. […]

MroD [5] = assay: MroD [4+2] macrocyclization of didehydrated MroA2 variants, MALDI-TOF-MS; format: biochemical, Micromonospora rosaria; set-up: key: +++ indicates enzyme activity roughly equal to wild-type MroA2; ++ indicates modestly reduced enzyme activity; + indicates severely reduced enzyme activity; − indicates no detectable enzyme activity (no macrocycles observed); conditions: MroA2 multi-site variants; qualitatively estimated from leader peptide vs remaining didehydrated intermediate
Description: as §4

Substance | Relative MroD conversion (MroD [4]) | Dha formation (MroB/C) [Dha] | further results
Δ12MroA1-I9G (peptide) |  |  | IC50 [1]: 910 nM; IC50 [2]: 2000 nM
H-SDLDIVDLDLAVDEELAALSVGGLGNTEVGA-OH [Δ12MroA1 Leader] |  |  | IC50 (MroD [3]): 16000 ± 4400 nM; IC50 (MroB): 19400 ± 1600 nM
SGGYRPHSWLI [Number 38] | − | 2 | 
SGYHFHNVSWLI [Number 54] | − | 2 | 
SGIAKEVRSWLI [Number 47-Q8R] | − | 2 | 
H-SDLDIVDLDLAVDEELAALSVGGLGNTEVGASGWLGSWGI-OH [Δ12MroA1-V8G] |  |  | IC50 (MroD [3]): 1700 ± 400 nM; IC50 (MroB): 1100 ± 200 nM
SGRANSWLI [Number 2] | − | 2 | 
SGLQHGKYSWLI [Number 52] | − | 2 | 
SGYHFHNRSWLI [Number 54-V8R] | − | 2 | 
Δ12MroA1-COOMe (peptide) |  |  | IC50 [1]: 400 nM; IC50 [2]: 4200 nM; fold loss in binding affinity (against Δ12MroA1) [2]: 8 fold
SGYDRQYSWLI [Number 56] | − | 2 | 
SGRYAGWSWLI [Number 39] | − | 2 | 
Δ12MroA1 Leader (peptide) |  |  | IC50 [1]: 16000 nM; IC50 [2]: 19400 nM
Δ12MroA1 (variant of MroA1 in which the first 12 residues were deleted) (peptide) |  |  | IC50 [1]: 900 nM; IC50 [2]: 680 nM
SGHYKPQASWLI [Number 55] | − | 2 | 
SGDAMRWRSWLI [Number 53-A8R] | − | 2 | 
SGIAKEVQSWLI [Number 47] | − | 2 | 
SGHYKPQRSWLI [Number 55-A8R] | − | 2 | 

Substance | Relative MroD conversion (MroD [4]) | Dha formation (MroB/C) [Dha] | further results
SGLQHGKRSWLI [Number 52-Y8R] | − | 2 | 
Δ12MroA1-W7G (peptide) |  |  | IC50 [1]: 2400 nM; IC50 [2]: 8100 nM
H-SDLDIVDLDLAVDEELAALSVGGLGNTEVGASGWLGSWVG-OH [Δ12MroA1-I9G] |  |  | IC50 (MroD [3]): 910 ± 90 nM; IC50 (MroB): 2000 ± 600 nM
SGKALEFSWLI [Number 29] | − | 2 | 
SGYDRQRSWLI [Number 56-Y7R] |  | 2 | Relative MroD conversion (MroD [5]): +++
SGVKADSWLI [Number 4] | − | 2 | 
SGPMHYSWLI [Number 21] |  | 2 | Relative MroD conversion (MroD [5]): +++
SGIYHNSWLI [Number 20] |  | 2 | Relative MroD conversion (MroD [5]): +++
SGERGMGKSWLI [Number 34] |  | 2 | Relative MroD conversion (MroD [5]): +++
SGNMHPGKSWLI [Number 40] |  | 2 | Relative MroD conversion (MroD [5]): ++
SGRVALEASWLI [Number 37] |  | 2 | Relative MroD conversion (MroD [5]): +
SGFDRAGHSWLI [Number 46] |  | 2 | Relative MroD conversion (MroD [5]): +
GlyAla-MroA1 core (peptide) |  |  | IC50 [1]: 40900 nM; IC50 [2]: 27200 nM
SGGWRVAHSWLI [Number 45] |  | 2 | Relative MroD conversion (MroD [5]): +
SGGRENSWLI [Number 11] |  | 2 | Relative MroD conversion (MroD [5]): ++
Δ12MroA1-V8G (peptide) |  |  | IC50 [1]: 1700 nM; IC50 [2]: 1100 nM
SGPRANYSWLI [Number 30] |  | 2 | Relative MroD conversion (MroD [5]): ++
